Data reported in US12421212B2, “Substituted benzenecarboxamides as IL-17A modulators” (DiCE Alpha, Inc., priority 2019, dated 2025).
Read-outs that look alike come from different tables or passages of the source.

Molecular target: T1, IL-17A/A (Homo sapiens, UniProt Q16552)
T1 construct: purchased Genscript Z03228
T1 sequence (Q16552 24-155): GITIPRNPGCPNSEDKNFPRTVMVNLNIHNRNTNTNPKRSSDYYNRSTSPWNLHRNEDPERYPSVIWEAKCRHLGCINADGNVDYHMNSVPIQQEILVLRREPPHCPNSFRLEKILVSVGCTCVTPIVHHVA
Test: IL-17A/A HEK-Blue Cell Assay
Type: cell-based

[1] = HEK-Blue IL-17A reporter cell line, SEAP readout at A630, 20 hours incubation with IL-17A/A, top concentration 10 uM, 1 uM or 0.3 uM, read-out: IL-17A/A inhibition (pIC50) (converted)
[2] = HEK-Blue IL-17A reporter cell line, SEAP readout at A630, 20 hours incubation with IL-17A/A, top concentration 10 uM, 1 uM or 0.3 uM

SMILES	IC50 [1]	also measured
CCC(=O)N[C@@H](C(=O)N1CCC(F)(F)CC1)[C@@H](C)c1ccc(NC(=O)[C@@H](NC(=O)c2nonc2CC)[C@H]2CC[C@H](C)CC2)c(F)c1 [Compound 468]	0.01 to 0.1 µM	
CCn1nccc1C(=O)N[C@H](C(=O)Nc1ccc([C@H](C)[C@@H](NC(=O)C2CC2)C(=O)N2CCN(C)CC2)cc1F)[C@H]1CC[C@H](C)CC1 [Compound 469]	0.01 to 0.1 µM	
CCn1nccc1C(=O)N[C@H](C(=O)Nc1ccc([C@H](C)[C@@H](NC(=O)[C@@H](C)F)C(=O)N2CCN(C)CC2)cc1F)[C@H]1CC[C@H](C)CC1 [Compound 470]	0.01 to 0.1 µM	
CCn1nccc1C(=O)N[C@H](C(=O)Nc1ccc([C@H](C)[C@@H](NC(=O)C(C)(F)F)C(=O)N2CCN(C)CC2)cc1F)[C@H]1CC[C@H](C)CC1 [Compound 471]	0.01 to 0.1 µM	
CCn1nccc1C(=O)N[C@H](C(=O)Nc1ccc([C@H](C)[C@@H](NC(=O)[C@H](C)F)C(=O)N2CCN(C)CC2)cc1F)[C@H]1CC[C@H](C)CC1 [Compound 472]	0.01 to 0.1 µM	
CCn1nccc1C(=O)N[C@H](C(=O)Nc1ccc([C@H](C)[C@@H](NC(=O)c2nonc2C)C(=O)N2CCN(C)CC2)cc1F)[C@H]1CC[C@H](C)CC1 [Compound 473]	0.01 to 0.1 µM	
CCn1nccc1C(=O)N[C@H](C(=O)Nc1ccc([C@H](C)[C@@H](NC(=O)[C@H](C)CC(=O)O)C(=O)N2CCN(C)CC2)cc1F)[C@H]1CC[C@H](C)CC1 [Compound 474]	0.01 to 0.1 µM	
CCn1nccc1C(=O)N[C@H](C(=O)Nc1ccc([C@H](C)[C@@H](NC(=O)[C@H](C)OC)C(=O)N2CCN(C)CC2)cc1F)[C@H]1CC[C@H](C)CC1 [Compound 476]	< 0.01 µM	
CCn1nccc1C(=O)N[C@H](C(=O)Nc1ccc([C@H](C)[C@@H](NC(=O)[C@@H]2CCCO2)C(=O)N2CCN(C)CC2)cc1F)[C@H]1CC[C@H](C)CC1 [Compound 477]	0.01 to 0.1 µM	
CCn1nccc1C(=O)N[C@H](C(=O)Nc1ccc([C@H](C)[C@@H](NC(=O)COC)C(=O)N2CCN(C)CC2)cc1F)[C@H]1CC[C@H](C)CC1 [Compound 478]	0.01 to 0.1 µM	
CCn1nccc1C(=O)N[C@H](C(=O)Nc1ccc([C@H](C)[C@@H](NC(=O)C(C)(F)F)C(=O)N2CCN(C)[C@@H](C)C2)cc1F)[C@H]1CC[C@H](C)CC1 [Compound 479]	< 0.01 µM	
CCn1nccc1C(=O)N[C@H](C(=O)Nc1ccc([C@H](C)[C@@H](NC(=O)C(C)(F)F)C(=O)N2CCN(C)[C@H](C)C2)cc1F)[C@H]1CC[C@H](C)CC1 [Compound 480]	< 0.01 µM	
CCn1nccc1C(=O)N[C@H](C(=O)Nc1ccc([C@H](C)[C@@H](NC(=O)C(F)(F)CC)C(=O)N2CCN(C)[C@H](C)C2)cc1F)[C@H]1CC[C@H](C)CC1 [Compound 481]	< 0.01 µM	
CCn1nccc1C(=O)N[C@H](C(=O)Nc1ccc([C@H](C)[C@@H](NC(=O)C2(F)CCC2)C(=O)N2CCN(C)[C@H](C)C2)cc1F)[C@H]1CC[C@H](C)CC1 [Compound 482]	0.01 to 0.1 µM	
CCn1nccc1C(=O)N[C@H](C(=O)Nc1ccc([C@H](C)[C@@H](NC(=O)OC)C(=O)N2CCN(C)CC2)cc1F)[C@H]1CC[C@H](C)CC1 [Compound 483]	0.01 to 0.1 µM	
CCn1nccc1C(=O)N[C@H](C(=O)Nc1ccc([C@H](C)[C@@H](NC(=O)OC2CC2)C(=O)N2CCN(C)CC2)cc1F)[C@H]1CC[C@H](C)CC1 [Compound 484]	0.01 to 0.1 µM	
CCn1nccc1C(=O)N[C@H](C(=O)Nc1ccc([C@H](C)[C@@H](NS(=O)(=O)CC)C(=O)N2CCN(C)CC2)cc1F)[C@H]1CC[C@H](C)CC1 [Compound 485]	0.01 to 0.1 µM	
CCn1nccc1C(=O)N[C@H](C(=O)Nc1ccc([C@H](C)[C@@H](NC(=O)c2ccnn2C2CCN(C)CC2)C(=O)N2CCN(C)CC2)cc1F)[C@H]1CC[C@H](C)CC1 [Compound 486]	0.01 to 0.1 µM	
CCn1nccc1C(=O)N[C@H](C(=O)Nc1ccc([C@H](C)[C@@H](NC(=O)c2cnsc2)C(=O)N2CCN(C)CC2)cc1F)[C@H]1CC[C@H](C)CC1 [Compound 487]		IL-17A/A inhibition (pIC50) [2]: B (8>B≥7 as B)
CCn1nccc1C(=O)N[C@H](C(=O)Nc1ccc([C@H](C)[C@@H](NC(=O)N(C)C2CC2)C(=O)N2CCN(C)CC2)cc1F)[C@H]1CC[C@H](C)CC1 [Compound 488]	< 0.01 µM	
CCc1nonc1C(=O)N[C@H](C(=O)Nc1ccc([C@H](C)[C@@H](NC(=O)c2nonc2C)C(=O)N2CCN(C)CC2)cc1F)[C@H]1CC[C@H](C)CC1 [Compound 489]	0.01 to 0.1 µM	
CCc1nonc1C(=O)N[C@H](C(=O)Nc1ccc([C@H](C)[C@@H](NC(=O)c2ccnn2C)C(=O)N2CCN(C)CC2)cc1F)[C@H]1CC[C@H](C)CC1 [Compound 490]	0.01 to 0.1 µM	
CCc1nonc1C(=O)N[C@H](C(=O)Nc1ccc([C@H](C)[C@@H](NC(=O)[C@H](C)F)C(=O)N2CCN(C)CC2)cc1F)[C@H]1CC[C@H](C)CC1 [Compound 491]	0.01 to 0.1 µM	
CCc1nonc1C(=O)N[C@H](C(=O)Nc1ccc([C@H](C)[C@@H](NC(=O)CC2CC2)C(=O)N2CCN(C)CC2)cc1F)[C@H]1CC[C@H](C)CC1 [Compound 492]	< 0.01 µM	

SMILES	IC50 [1]	also measured
CCc1nonc1C(=O)N[C@H](C(=O)Nc1ccc([C@H](C)[C@@H](NC(=O)[C@H](C)CC(=O)O)C(=O)N2CCN(C)CC2)cc1F)[C@H]1CC[C@H](C)CC1 [Compound 493]	0.01 to 0.1 µM	
CCc1nonc1C(=O)N[C@H](C(=O)Nc1ccc([C@H](C)[C@@H](NC(=O)C(C)C)C(=O)N2CCN(C)CC2)cc1F)[C@H]1CC[C@H](C)CC1 [Compound 494]	< 0.01 µM	
CCc1nonc1C(=O)N[C@H](C(=O)Nc1ccc([C@H](C)[C@@H](NC(=O)C(C)(C)F)C(=O)N2CCN(C)CC2)cc1F)[C@H]1CC[C@H](C)CC1 [Compound 495]	0.01 to 0.1 µM	
CCc1nonc1C(=O)N[C@H](C(=O)Nc1ccc([C@H](C)[C@@H](NC(=O)[C@H](C)OC)C(=O)N2CCN(C)CC2)cc1F)[C@H]1CC[C@H](C)CC1 [Compound 497]	< 0.01 µM	
CCc1nonc1C(=O)N[C@H](C(=O)Nc1ccc([C@H](C)[C@@H](NC(=O)[C@@H]2CCCO2)C(=O)N2CCN(C)CC2)cc1F)[C@H]1CC[C@H](C)CC1 [Compound 498]	0.01 to 0.1 µM	
CCc1nonc1C(=O)N[C@H](C(=O)Nc1ccc([C@H](C)[C@@H](NC(=O)COC)C(=O)N2CCN(C)CC2)cc1F)[C@H]1CC[C@H](C)CC1 [Compound 499]	< 0.01 µM	
CCc1nonc1C(=O)N[C@H](C(=O)Nc1ccc([C@H](C)[C@@H](NC(=O)[C@@H](C)F)C(=O)N2CCN(C)CC2)cc1F)[C@H]1CC[C@H](C)CC1 [Compound 500]	< 0.01 µM	
CCc1nonc1C(=O)N[C@H](C(=O)Nc1ccc([C@H](C)[C@@H](NC(=O)C(C)(F)F)C(=O)N2CCN(C)CC2)cc1F)[C@H]1CC[C@H](C)CC1 [Compound 501]	0.01 to 0.1 µM	
CCc1nonc1C(=O)N[C@H](C(=O)Nc1ccc([C@H](C)[C@@H](NC(=O)C(C)(F)F)C(=O)N2CCN(C)[C@H](C)C2)cc1F)[C@H]1CC[C@H](C)CC1 [Compound 503]	0.01 to 0.1 µM	
CCc1nonc1C(=O)N[C@H](C(=O)Nc1ccc([C@H](C)[C@@H](NC(=O)C(F)(F)CC)C(=O)N2CCN(C)[C@H](C)C2)cc1F)[C@H]1CC[C@H](C)CC1 [Compound 504]	< 0.01 µM	
CCc1nonc1C(=O)N[C@H](C(=O)Nc1ccc([C@H](C)[C@@H](NC(=O)C2(F)CCC2)C(=O)N2CCN(C)[C@H](C)C2)cc1F)[C@H]1CC[C@H](C)CC1 [Compound 505]	0.01 to 0.1 µM	
CCc1nonc1C(=O)N[C@H](C(=O)Nc1ccc([C@H](C)[C@@H](NC(=O)CC2CC2)C(=O)N2CCN(C)[C@@H](C)C2)cc1F)[C@H]1CC[C@H](C)CC1 [Compound 506]	< 0.01 µM	
CCc1nonc1C(=O)N[C@H](C(=O)Nc1ccc([C@H](C)[C@@H](NC(=O)N(C)C2CC2)C(=O)N2CCN(C)[C@H](C)C2)cc1F)[C@H]1CC[C@H](C)CC1 [Compound 508]	< 0.01 µM	
CCc1nonc1C(=O)N[C@H](C(=O)Nc1ccc([C@H](C)[C@@H](NC(=O)N(C)C2CC2)C(=O)N2CCN(C)[C@@H](C)C2)cc1F)[C@H]1CC[C@H](C)CC1 [Compound 509]	0.01 to 0.1 µM	
CCc1nonc1C(=O)N[C@H](C(=O)Nc1ccc([C@H](C)[C@@H](NC(=O)CF)C(=O)N2CCN(C)[C@@H](C)C2)cc1F)[C@H]1CC[C@H](C)CC1 [Compound 510]		IC50: 0.01 to 0.1 µM
CCc1nonc1C(=O)N[C@H](C(=O)Nc1ccc([C@H](C)[C@@H](NC(C)=O)C(=O)N2CCN(C)[C@@H](C)C2)cc1F)[C@H]1CC[C@H](C)CC1 [Compound 511]		IL-17A/A inhibition (pIC50) [2]: A (compounds having a pIC50 of greater than or equal 8 as A)
CCc1nonc1C(=O)N[C@H](C(=O)Nc1ccc([C@H](C)[C@@H](NC(=O)C(F)F)C(=O)N2CCN(C)[C@@H](C)C2)cc1F)[C@H]1CC[C@H](C)CC1 [Compound 512]		IL-17A/A inhibition (pIC50) [2]: B (8>B≥7 as B)
CCc1nonc1C(=O)N[C@H](C(=O)Nc1ccc([C@H](C)[C@@H](NC(=O)N(C)C2CC2)C(=O)N2CCN(C)CC2)cc1F)[C@H]1CC[C@H](C)CC1 [Compound 513]	< 0.01 µM	
CCc1nonc1C(=O)N[C@H](C(=O)Nc1ccc([C@H](C)[C@@H](NC(=O)N(C)C)C(=O)N2CCN(C)CC2)cc1F)[C@H]1CC[C@H](C)CC1 [Compound 514]	< 0.01 µM	
CCc1nonc1C(=O)N[C@H](C(=O)Nc1ccc([C@H](C)[C@@H](NC(=O)N2CCCC2)C(=O)N2CCN(C)CC2)cc1F)[C@H]1CC[C@H](C)CC1 [Compound 515]	0.01 to 0.1 µM	
CCc1nonc1C(=O)N[C@H](C(=O)Nc1ccc([C@H](C)[C@@H](NC(=O)N(C)C2CCC2)C(=O)N2CCN(C)CC2)cc1F)[C@H]1CC[C@H](C)CC1 [Compound 516]	< 0.01 µM	
CCc1nonc1C(=O)N[C@H](C(=O)Nc1ccc([C@H](C)[C@@H](NC(=O)NC2CC2)C(=O)N2CCN(C)CC2)cc1F)[C@H]1CC[C@H](C)CC1 [Compound 517]	< 0.01 µM	
CCc1nonc1C(=O)N[C@H](C(=O)Nc1ccc([C@H](C)[C@@H](NS(=O)(=O)CC)C(=O)N2CCN(C)CC2)cc1F)[C@H]1CC[C@H](C)CC1 [Compound 518]	0.01 to 0.1 µM	
